The results in this text go back to US12539292B2, “BRM targeting compounds and associated methods of use” (Arvinas Operations, Inc., priority 2018, dated 2026).

The target in this experiment is T1, BRM (Homo sapiens, UniProt P51531).
T1 construct: In-Cell Western Screen of BRM Degradation in SW1573 Cells; endogenous in cells; host or cells: SW1573
The experiment in a line: In-cell Western screen of BRM degradation in SW1573 cells (Dmax and DC50). It is filed as cell-based. Conditions: BRM degradation, SW1573 cells; for DC50: read-out: DC50; for Dmax: tested at the top concentration of between 0.3 and 10 μM, read-out: Dmax (%) (% degraded). In outline:
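After adhering overnight, cells received compound for 18-20 hours. They were then washed in cold DPBS, fixed with 4% PFA for 20 min and permeabilized for 30 min. Blocking and fluorescent secondary staining followed before imaging.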

T1 sequence (P51531 whole entry): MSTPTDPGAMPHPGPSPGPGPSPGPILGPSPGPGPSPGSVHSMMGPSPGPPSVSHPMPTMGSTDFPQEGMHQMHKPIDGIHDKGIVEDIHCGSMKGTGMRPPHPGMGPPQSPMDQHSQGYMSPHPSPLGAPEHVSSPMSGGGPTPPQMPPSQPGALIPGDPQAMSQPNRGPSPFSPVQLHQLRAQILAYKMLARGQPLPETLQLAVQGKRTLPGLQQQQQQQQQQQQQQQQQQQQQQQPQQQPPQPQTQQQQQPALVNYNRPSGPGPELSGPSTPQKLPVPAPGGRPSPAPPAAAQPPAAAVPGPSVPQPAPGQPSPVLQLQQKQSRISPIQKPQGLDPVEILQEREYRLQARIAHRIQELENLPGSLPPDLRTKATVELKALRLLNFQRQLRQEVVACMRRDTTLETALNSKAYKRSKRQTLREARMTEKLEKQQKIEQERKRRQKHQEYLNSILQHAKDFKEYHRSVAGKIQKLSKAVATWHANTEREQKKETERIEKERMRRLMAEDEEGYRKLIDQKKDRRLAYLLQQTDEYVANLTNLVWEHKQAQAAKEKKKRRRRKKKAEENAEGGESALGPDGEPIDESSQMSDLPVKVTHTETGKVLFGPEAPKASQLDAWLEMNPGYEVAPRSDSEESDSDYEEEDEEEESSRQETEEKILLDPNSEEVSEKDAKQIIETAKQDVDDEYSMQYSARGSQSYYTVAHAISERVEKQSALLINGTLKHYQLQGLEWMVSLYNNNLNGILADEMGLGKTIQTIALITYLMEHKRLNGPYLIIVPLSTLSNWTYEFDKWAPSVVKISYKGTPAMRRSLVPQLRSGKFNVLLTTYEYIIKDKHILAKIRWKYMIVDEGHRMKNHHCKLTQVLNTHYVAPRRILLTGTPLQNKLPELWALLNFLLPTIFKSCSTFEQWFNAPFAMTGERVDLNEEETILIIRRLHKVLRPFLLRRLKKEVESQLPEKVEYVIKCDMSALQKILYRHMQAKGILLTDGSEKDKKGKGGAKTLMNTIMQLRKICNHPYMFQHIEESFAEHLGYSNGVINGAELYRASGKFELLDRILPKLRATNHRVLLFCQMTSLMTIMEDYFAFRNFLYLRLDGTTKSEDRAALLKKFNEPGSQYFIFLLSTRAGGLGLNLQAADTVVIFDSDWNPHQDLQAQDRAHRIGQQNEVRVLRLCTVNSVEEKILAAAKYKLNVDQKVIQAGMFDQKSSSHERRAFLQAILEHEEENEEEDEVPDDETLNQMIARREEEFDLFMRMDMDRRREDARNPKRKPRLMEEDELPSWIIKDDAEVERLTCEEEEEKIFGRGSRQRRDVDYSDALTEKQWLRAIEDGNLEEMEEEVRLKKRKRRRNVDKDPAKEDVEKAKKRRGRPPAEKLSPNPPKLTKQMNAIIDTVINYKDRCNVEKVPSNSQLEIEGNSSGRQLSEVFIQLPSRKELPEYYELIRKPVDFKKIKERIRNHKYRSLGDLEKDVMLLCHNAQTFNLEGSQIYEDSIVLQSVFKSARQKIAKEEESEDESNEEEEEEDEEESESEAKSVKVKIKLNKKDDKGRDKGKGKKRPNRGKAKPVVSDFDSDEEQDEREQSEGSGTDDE

On to `Cc1ncsc1-c1ccc([C@H](C)NC(=O)[C@@H]2C[C@@H](O)CN2C(=O)[C@H](c2cc(OCCN3CCC(O[C@H]4C[C@H](Oc5cc(N6C7CCC6CN(c6cc(-c8ccccc8O)nnc6N)C7)ccn5)C4)CC3)no2)C(C)C)cc1F` [compound 252, (2S,4R)-1-((2S)-2-(3-(2-(4-((1r,3S)-3-((4-(3-(3-amino-6-(2-hydroxyphenyl)pyridazin-4-yl)-3,8-diazabicyclo[3.2.1]octan-8-yl)pyridin-2-yl)oxy)cyclobutoxy)piperidin-1-yl)ethoxy)isoxazol-5-yl)-3-methylbutanoyl)-N-((S)-1-(3-fluoro-4-(4-methylthiazol-5-yl)phenyl)ethyl)-4-hydroxypyrrolidine-2-carboxamide], for which the 50% degradation concentration (DC50) is more than 30 nM and the Dmax is more than 75%. As for `Cc1ncsc1-c1ccc([C@H](C)NC(=O)[C@@H]2C[C@@H](O)CN2C(=O)[C@@H](c2cc(OCCN3CCC(O[C@H]4C[C@H](Oc5cc(N6C7CCC6CN(c6cc(-c8ccccc8O)nnc6N)C7)ccn5)C4)CC3)no2)C(C)C)cc1F` [compound 253, (2S,4R)-1-((2R)-2-(3-(2-(4-((1r,3R)-3-((4-(3-(3-amino-6-(2-hydroxyphenyl)pyridazin-4-yl)-3,8-diazabicyclo[3.2.1]octan-8-yl)pyridin-2-yl)oxy)cyclobutoxy)piperidin-1-yl)ethoxy)isoxazol-5-yl)-3-methylbutanoyl)-N-((S)-1-(3-fluoro-4-(4-methylthiazol-5-yl)phenyl)ethyl)-4-hydroxypyrrolidine-2-carboxamide], the DC50 was less than 2.5 nM and the Dmax is more than 75%.

As for `Cc1ncsc1-c1ccc([C@H](C)NC(=O)[C@H]2C[C@H](O)CN2C(=O)C(c2cc(OCCN3CCC(O[C@H]4C[C@H](Oc5cc(N6C7CCC6CN(c6cc(-c8ccccc8O)nnc6N)C7)ccn5)C4)CC3)no2)C(C)C)cn1` (stereo partly drawn) [compound 254, (2R,4S)-1-(2-(3-(2-(4-((1r,3r)-3-((4-(3-(3-amino-6-(2-hydroxyphenyl)pyridazin-4-yl)-3,8-diazabicyclo[3.2.1]octan-8-yl)pyridin-2-yl)oxy)cyclobutoxy)piperidin-1-yl)ethoxy)isoxazol-5-yl)-3-methylbutanoyl)-4-hydroxy-N-((S)-1-(6-(4-methylthiazol-5-yl)pyridin-3-yl)ethyl)pyrrolidine-2-carboxamide], the DC50 was more than 30 nM. Still for that read-out and setting: under `Cc1ncsc1-c1ccc([C@@H](CN)NC(=O)[C@@H]2C[C@@H](O)CN2C(=O)[C@H](c2cc(OCCN3CCN(CCOc4cc(N5C6CCC5CN(c5cc(-c7ccccc7O)nnc5N)C6)ccn4)CC3)no2)C(C)C)cc1` [compound 255, (2S,4R)-N-((S)-2-amino-1-(4-(4-methylthiazol-5-yl)phenyl)ethyl)-1-((2S)-2-(3-(2-(4-(2-((4-(3-(3-amino-6-(2-hydroxyphenyl)pyridazin-4-yl)-3,8-diazabicyclo[3.2.1]octan-8-yl)pyridin-2-yl)oxy)ethyl)piperazin-1-yl)ethoxy)isoxazol-5-yl)-3-methylbutanoyl)-4-hydroxypyrrolidine-2-carboxamide] stands more than 30 nM; under `Cc1ncsc1-c1ccc([C@@H](CN)NC(=O)[C@@H]2C[C@@H](O)CN2C(=O)[C@@H](c2cc(OCCN3CCN(CCOc4cc(N5C6CCC5CN(c5cc(-c7ccccc7O)nnc5N)C6)ccn4)CC3)no2)C(C)C)cc1` [compound 256, (2S,4R)-N-((S)-2-amino-1-(4-(4-methylthiazol-5-yl)phenyl)ethyl)-1-((2R)-2-(3-(2-(4-(2-((4-(3-(3-amino-6-(2-hydroxyphenyl)pyridazin-4-yl)-3,8-diazabicyclo[3.2.1]octan-8-yl)pyridin-2-yl)oxy)ethyl)piperazin-1-yl)ethoxy)isoxazol-5-yl)-3-methylbutanoyl)-4-hydroxypyrrolidine-2-carboxamide], more than 30 nM. In the case of `CCOC[C@H](NC(=O)[C@@H]1C[C@@H](O)CN1C(=O)[C@H](c1cc(OCCN2CCN(CCOc3cc(N4C5CCC4CN(c4cc(-c6ccccc6O)nnc4N)C5)ccn3)CC2)no1)C(C)C)c1ccc(-c2scnc2C)cc1` [compound 257, (2S,4R)-1-((2S)-2-(3-(2-(4-(2-((4-(3-(3-amino-6-(2-hydroxyphenyl)pyridazin-4-yl)-3,8-diazabicyclo[3.2.1]octan-8-yl)pyridin-2-yl)oxy)ethyl)piperazin-1-yl)ethoxy)isoxazol-5-yl)-3-methylbutanoyl)-N-((R)-2-ethoxy-1-(4-(4-methylthiazol-5-yl)phenyl)ethyl)-4-hydroxypyrrolidine-2-carboxamide], the 50% degradation concentration (DC50) was 2.5 to 10 nM and the greatest degradation seen (Dmax) is more than 75%. Turning to `Cc1ncsc1-c1ccc([C@@H](NC(=O)[C@@H]2C[C@@H](O)CN2C(=O)[C@H](c2cc(OCCN3CCN(CCOc4cc(N5C6CCC5CN(c5cc(-c7ccccc7O)nnc5N)C6)ccn4)CC3)no2)C(C)C)C(=O)N(C)c2ccccc2)cc1` [compound 258, (2S,4R)-1-((2S)-2-(3-(2-(4-(2-((4-(3-(3-amino-6-(2-hydroxyphenyl)pyridazin-4-yl)-3,8-diazabicyclo[3.2.1]octan-8-yl)pyridin-2-yl)oxy)ethyl)piperazin-1-yl)ethoxy)isoxazol-5-yl)-3-methylbutanoyl)-4-hydroxy-N-((R)-2-(methyl(phenyl)amino)-1-(4-(4-methylthiazol-5-yl)phenyl)-2-oxoethyl)pyrrolidine-2-carboxamide], the DC50 was more than 30 nM. For `Cc1ncsc1-c1ccc([C@@H](NC(=O)[C@@H]2C[C@@H](O)CN2C(=O)[C@@H](c2cc(OCCN3CCN(CCOc4cc(N5C6CCC5CN(c5cc(-c7ccccc7O)nnc5N)C6)ccn4)CC3)no2)C(C)C)C(=O)N(C)c2ccccc2)cc1` [compound 259, (2S,4R)-1-((2R)-2-(3-(2-(4-(2-((4-(3-(3-amino-6-(2-hydroxyphenyl)pyridazin-4-yl)-3,8-diazabicyclo[3.2.1]octan-8-yl)pyridin-2-yl)oxy)ethyl)piperazin-1-yl)ethoxy)isoxazol-5-yl)-3-methylbutanoyl)-4-hydroxy-N-((R)-2-(methyl(phenyl)amino)-1-(4-(4-methylthiazol-5-yl)phenyl)-2-oxoethyl)pyrrolidine-2-carboxamide], the DC50 is less than 2.5 nM and the Dmax was more than 75%.

`Cc1ncsc1-c1ccc([C@H](C)NC(=O)[C@@H]2C[C@@H](O)CN2C(=O)[C@H](c2cc(OCCC3CCN(C(=O)[C@H]4C[C@H](Oc5cc(N6C7CCC6CN(c6cc(-c8ccccc8O)nnc6N)C7)ccn5)C4)CC3)no2)C(C)C)cn1` [compound 260, (2S,4R)-1-((2S)-2-(3-(2-(1-((1r,3S)-3-((4-(3-(3-amino-6-(2-hydroxyphenyl)pyridazin-4-yl)-3,8-diazabicyclo[3.2.1]octan-8-yl)pyridin-2-yl)oxy)cyclobutane-1-carbonyl)piperidin-4-yl)ethoxy)isoxazol-5-yl)-3-methylbutanoyl)-4-hydroxy-N-((S)-1-(6-(4-methylthiazol-5-yl)pyridin-3-yl)ethyl)pyrrolidine-2-carboxamide]: the DC50 is more than 30 nM. As to `Cc1ncsc1-c1ccc([C@H](C)NC(=O)[C@@H]2C[C@@H](O)CN2C(=O)[C@@H](c2cc(OCCC3CCN(C(=O)[C@H]4C[C@H](Oc5cc(N6C7CCC6CN(c6cc(-c8ccccc8O)nnc6N)C7)ccn5)C4)CC3)no2)C(C)C)cn1` [compound 261, (2S,4R)-1-((2R)-2-(3-(2-(1-((1r,3R)-3-((4-(3-(3-amino-6-(2-hydroxyphenyl)pyridazin-4-yl)-3,8-diazabicyclo[3.2.1]octan-8-yl)pyridin-2-yl)oxy)cyclobutane-1-carbonyl)piperidin-4-yl)ethoxy)isoxazol-5-yl)-3-methylbutanoyl)-4-hydroxy-N-((S)-1-(6-(4-methylthiazol-5-yl)pyridin-3-yl)ethyl)pyrrolidine-2-carboxamide], the DC50 was less than 2.5 nM and the Dmax is more than 75%.

Regarding `Cc1ncsc1-c1ccc([C@H](COCC2CCOCC2)NC(=O)[C@@H]2C[C@@H](O)CN2C(=O)[C@H](c2cc(OCCN3CCN(CCOc4cc(N5C6CCC5CN(c5cc(-c7ccccc7O)nnc5N)C6)ccn4)CC3)no2)C(C)C)cc1` [compound 262, (2S,4R)-1-((2S)-2-(3-(2-(4-(2-((4-(3-(3-amino-6-(2-hydroxyphenyl)pyridazin-4-yl)-3,8-diazabicyclo[3.2.1]octan-8-yl)pyridin-2-yl)oxy)ethyl)piperazin-1-yl)ethoxy)isoxazol-5-yl)-3-methylbutanoyl)-4-hydroxy-N-((R)-1-(4-(4-methylthiazol-5-yl)phenyl)-2-((tetrahydro-2H-pyran-4-yl)methoxy)ethyl)pyrrolidine-2-carboxamide], the DC50 is more than 30 nM. With `CC(C)[C@H](C(=O)N1C[C@H](O)C[C@H]1C(=O)N[C@@H](C)c1ccc(-c2ccnn2C)cc1)c1cc(OCCN2CCN(CCOc3cc(N4C5CCC4CN(c4cc(-c6ccccc6O)nnc4N)C5)ccn3)CC2)no1` [compound 263, (2S,4R)-1-((2S)-2-(3-(2-(4-(2-((4-(3-(3-amino-6-(2-hydroxyphenyl)pyridazin-4-yl)-3,8-diazabicyclo[3.2.1]octan-8-yl)pyridin-2-yl)oxy)ethyl)piperazin-1-yl)ethoxy)isoxazol-5-yl)-3-methylbutanoyl)-4-hydroxy-N-((S)-1-(4-(1-methyl-1H-pyrazol-5-yl)phenyl)ethyl)pyrrolidine-2-carboxamide], the DC50 is 2.5 to 10 nM and the Dmax was more than 75%. The corresponding values for `CC(C)[C@@H](C(=O)N1C[C@H](O)C[C@H]1C(=O)N[C@@H](C)c1ccc(-c2ccnn2C)cc1)c1cc(OCCN2CCN(CCOc3cc(N4C5CCC4CN(c4cc(-c6ccccc6O)nnc4N)C5)ccn3)CC2)no1` [compound 264, (2S,4R)-1-((2R)-2-(3-(2-(4-(2-((4-(3-(3-amino-6-(2-hydroxyphenyl)pyridazin-4-yl)-3,8-diazabicyclo[3.2.1]octan-8-yl)pyridin-2-yl)oxy)ethyl)piperazin-1-yl)ethoxy)isoxazol-5-yl)-3-methylbutanoyl)-4-hydroxy-N-((S)-1-(4-(1-methyl-1H-pyrazol-5-yl)phenyl)ethyl)pyrrolidine-2-carboxamide] are less than 2.5 nM and more than 75%.

What is called DC50 is the concentration at which degradation of the target reaches its halfway point. For orientation: Dmax means the greatest extent of degradation seen.
